Test results: US20160229835A1, “NOVEL PYRIDYLOXYACETYL TETRAHYDROISOQUINOLINE COMPOUNDS USEFUL AS NAMPT INHIBITORS” (ELI LILLY AND COMPANY, priority 2013, published 2016)

Tests used:
[1] = system: NAMPT-mediated NAD+/NMN formation in A2780 tumor cells; experiment: Assay for NAD+/NMN Levels in A2780 Cells; assay type: cell-based; details: Homo sapiens, A2780, 24 h, 24 hours treatment, averaged
Description: A2780 (the NCI-DCTD Tumor repository) tumor cells, an ovarian cancer cell line, are cultured in RPMI 1640 (SH30255.01, Hyclone) supplemented with 10% FBS. […] FK866 (100 nM) is also included as a positive control for maximum inhibition (100%). Each compound is tested 1-4 times in this assay.
To assess NAD^+/NMN levels in the cell, A2780 cells grown in the above referenced 96-well plates are lysed with RIPA buffer (Pierce) followed by addition of 50 μL of 0.2 N HCl. The resulting cell lysates are incubated at 60° C. for 10 minutes and neutralized with 50 μL of 0.2 N NaOH. After centrifugation at 2000×g for 15 minutes, the supernatants (50 μL) are collected. The NAD^+/NMN assays are described by Putt and Hergenrother (Putt, K. S, and Hergenrother, P. J., An enzymatic assay for poly(ADP-ribose) polymerase-1 (PARP-1) via the chemical quantitation of NAD^+: application to the high-throughput screening of small molecules as potential inhibitors. Analytical Biochemistry, 2004, 326, 78-86) with modifications. The resulting lysates are mixed with 20 μL of 0.2 N KOH and 20 μL of 20% acetophenone, and incubated at 90° C. for 10 minutes followed by addition of 90 μL of formic acid. After incubation at 90° C. for 10 minutes, the resulting preparations are measured for their fluorescence at the excitation and emission wavelength of 360 and 450 nm, respectively as described by Putt and Hergenrother (2004).

A2780 cells = experiment: A2780 Proliferation Assay ±NAM (Nicotinamide); assay type: cell-based; details: Homo sapiens, A2780, 72 h, absence of NAM, read-out: IC50 (proliferation of A2780 cells in the absence of NAM)
Description: The purpose of this assay is to measure the ability of a compound to inhibit proliferation of A2780 cells (the NCI-DCTD Tumor repository) dependent on the NAMPT-mediated NAD^+ formation in the presence or absence of higher concentrations of NAM (10 mM) in vitro. The A2780 cell proliferation assay uses assay-ready frozen cells. To prepare assay-ready frozen A2780 cells, A2780 cells, an ovarian cancer cell line, are cultured in growth media containing RPMI 1640 (Gibco 30-2001) supplemented with 10% FBS, in T-150 flasks for 3-4 days. Cells are then treated with 4 mL of 0.25% (v/v) trypsin for 1 minute (Hyclone SH30042). Trypsin-treated cells are then diluted with 10 mL of growth media, and the cell slurry is gently mixed and then decanted to a centrifuge tube. Cells are counted and then pelleted by centrifugation at 1400 rpm for 5 minutes. After centrifugation the supernatant is removed and the cell pellets are re-suspended in GIBCO® RECOVERY™ Cell Culture Freezing Medium (Invitrogen 12648-010) at 2-5×10^6 cells/mL and then aliquoted at 1 mL volumes into cryovials. Cryovials are stored initially at −80° C. for 16 hours, and then transferred to liquid nitrogen for long term storage.
One day before the planned initiation of compound treatment portion of the assay, one vial of assay ready frozen cells is thawed, and the cells are washed with 50 mL of growth medium. Cells are counted and then diluted to 2.8×10^4 cells/mL and then plated at a rate of 2500 cells/well (90 μL per well) to BD Poly-D-Lysine, 96 well black plates (BD Biocoat 35-4640). Plates are then covered and incubated overnight under 5% CO2 at 37° C. The next day in a separate plate (V bottom Nunc 249946), a ten-point compound dilution series for each compound is prepared in growth media containing 2% DMSO (v/v, 0.2% final) with or without 100 mM NAM (10 mM final). Then 10 μL of compounds after a ten-point series dilution from either 2 or 0.1 μM (depending potency of each compound) to 50 pM or 5 pM (final) are added to the wells of the cell plates. Cell plates are covered and incubated for 72 hours under 5% CO2 at 37° C.
On the day of the viability assessment, one vial of GF-AFC substrate (CELL TITER-FLUOR™ Cell Viability Assay Kit, Promega G6081) is vortexed and the substrate is transferred to one vial of thawed CELL TITER-FLUOR™ Assay Buffer. The resulting CELL TITER-FLUOR™ reagent is then vortexed well to thoroughly dissolve the substrate. The CELL TITER-FLUOR™ reagent is then diluted (1:2) in growth medium and 50 μL of diluted CELL TITER-FLUOR™ reagent is added to each well of the cell plate. The cell plate is covered and incubated under 5% CO2 at 37° C. for 1-3 hours. Finally the cell plates are removed from the incubator and the well fluorescence is measured on an Envision® Multilabel Reader (Perkin Elmer, λeX 355/λem 495). Fluorescence from compound treated wells is compared to the no cell and no compound treatment control wells to calculate percent inhibition. The percent inhibition and ten-point compound concentration data is fit to a four-parameter logistic equation using ACTIVITYBASE 4.0 Equation 205. Each compound is tested 2-4 times in this assay.

Compound | IC50 [1] [nM] | IC50 (A2780 cells) [nM]
O=C(COc1cccnc1)N1CCc2cc(NS(=O)(=O)CC3CC3)ccc2C1 [Example 6, 1-Cyclopropyl-N-{2-[(pyridin-3-yloxy)acetyl]-1,2,3,4-tetrahydroisoquinolin-6-yl}methanesulfonamide] | ≤ 195 | < 677
O=C(COc1cccnc1)N1CCc2cc(NS(=O)(=O)CCC(F)(F)F)ccc2C1 [Example 5, 3,3,3-Trifluoro-N-{2-[(pyridin-3-yloxy)acetyl]-1,2,3,4-tetrahydroisoquinolin-6-yl}propane-1-sulfonamide] | ≤ 195 | < 677
O=C(COc1cccnc1)N1CCc2cc(NS(=O)(=O)c3ccccn3)ccc2C1 [Example 3, N-{2-[(Pyridin-3-yloxy)acetyl]-1,2,3,4-tetrahydroisoquinolin-6-yl}pyridine-2-sulfonamide] | ≤ 195 | < 677
CC(C)OCCS(=O)(=O)Nc1ccc2c(c1)CCN(C(=O)COc1cccnc1)C2 [Example 7, 2-Isopropoxy-N-[2-[2-(3-pyridyloxy)acetyl]-3,4-dihydro-1H-isoquinolin-6-yl]ethanesulfonamide] | ≤ 195 | < 677
CCC(C)(O)CC(=O)Nc1ccc2c(c1)CCN(C(=O)COc1cccnc1)C2 (stereo not drawn) [Example 11, 3-Hydroxy-3-methyl-N-[2-[2-(3-pyridyloxy)acetyl]-3,4-dihydro-1H-isoquinolin-6-yl]pentanamide] | ≤ 195 | < 677
CC(O)(CC(=O)Nc1ccc2c(c1)CCN(C(=O)COc1cccnc1)C2)C(F)(F)F (stereo not drawn) [Example 12, 4,4,4-Trifluoro-3-hydroxy-3-methyl-N-[2-[2-(3-pyridyloxy)acetyl]-3,4-dihydro-1H-isoquinlin-6-yl]butanamide] | ≤ 195 | < 677
CC(C)(O)CC(=O)Nc1ccc2c(c1)CCN(C(=O)COc1cccnc1)C2 [Example 15, 3-Hydroxy-3-methyl-N-{2-[(pyridin-3-yloxy)acetyl]-1,2,3,4-tetrahydroisoquinolin-6-yl}butanamide] | ≤ 195 | < 677
CC(C)(C)CC(=O)Nc1ccc2c(c1)CCN(C(=O)COc1cccnc1)C2 [Example 14, 3,3-Dimethyl-N-{2-[(pyridin-3-yloxy)acetyl]-1,2,3,4-tetrahydroisoquinolin-6-yl}butanamide] | ≤ 195 | < 677

Continued, values first:

IC50 [1] [nM] | IC50 (A2780 cells) [nM] | Compound
≤ 195 | < 677 | O=C(COc1cccnc1)N1CCc2cc(NS(=O)(=O)C3CCOCC3)ccc2C1 [Example 4, N-{2-[(Pyridin-3-yloxy)acetyl]-1,2,3,4-tetrahydroisoquinolin-6-yl}tetrahydro-2H-pyran-4-sulfonamide]
≤ 195 | < 677 | O=C(COc1cccnc1)N1CCc2cc(NS(=O)(=O)C3CCN(C4COC4)CC3)ccc2C1 [Example 8, 1-(Oxetan-3-yl)-N-[2-[2-(3-pyridyloxy)acetyl]-3,4-dihydro-1H-isoquinolin-6-yl]piperidine-4-sulfonamide]
≤ 195 | < 677 | CN1CCC(S(=O)(=O)Nc2ccc3c(c2)CCN(C(=O)COc2cccnc2)C3)CC1 [Example 9, 1-Methyl-N-{2-[(pyridin-3-yloxy)acetyl]-1,2,3,4-tetrahydroisoquinolin-6-yl}piperidine-4-sulfonamide]
≤ 195 | < 677 | CC(c1ccc2c(c1)CCN(C(=O)COc1cccnc1)C2)N1CCN(C(=O)C2CCOCC2)CC1 (single isomer, unassigned; isomer 2) [Example 20, 2-(3-Pyridyloxy)-1-[6-[1-[4-(tetrahydropyran-4-carbonyl)piperazin-1-yl]ethyl]-3,4-dihydro-1H-isoquinolin-2-yl]ethanone (isomer 2)]
≤ 195 | < 677 | O=C(CC1CCOCC1)N1CCN(Cc2ccc3c(c2)CCN(C(=O)COc2cccnc2)C3)CC1 [Example 19, 2-(Pyridin-3-yloxy)-1-[6-{[4-(tetrahydro-2H-pyran-4-ylacetyl)piperazin-1-yl]methyl}-3,4-dihydroisoquinolin-2(1H)-yl]ethanone]
≤ 195 | < 677 | O=C(COc1cccnc1)N1CCc2cc(CN3CCN(C(=O)C4CCOCC4)CC3)ccc2C1 [Example 16, 2-(Pyridin-3-yloxy)-1-[6-{[4-(tetrahydro-2H-pyran-4-ylcarbonyl)piperazin-1-yl]methyl}-3,4-dihydroisoquinolin-2(1H)-yl]ethanone]
≤ 195 | < 677 | O=C(CC1CCCCO1)Nc1ccc2c(c1)CCN(C(=O)COc1cccnc1)C2 (single isomer, unassigned; isomer 2) [Example 13, N-[2-[2-(3-Pyridyloxy)acetyl]-3,4-dihydro-1H-isoquinolin-6-yl]-2-tetrahydropyran-2-yl-acetamide (isomer 2)]
≤ 195 | < 677 | O=C(COc1cccnc1)N1CCc2cc(NS(=O)(=O)C3CCN(C(=O)C4CCOCC4)CC3)ccc2C1 [Example 10, N-[2-[2-(3-Pyridyloxy)acetyl]-3,4-dihydro-1H-isoquinolin-6-yl]-1-(tetrahydropyran-4-carbonyl)piperidine-4-sulfonamide]
≤ 195 | < 677 | O=C(CN1CCOCC1)N1CCN(Cc2ccc3c(c2)CCN(C(=O)COc2cccnc2)C3)CC1 [Example 17, 2-(Morpholin-4-yl)-1-[4-({2-[(pyridin-3-yloxy)acetyl]-1,2,3,4-tetrahydroisoquinolin-6-yl}methyl)piperazin-1-yl]ethanone]
≤ 195 | < 677 | CC(C)(O)CC(=O)N1CCN(Cc2ccc3c(c2)CCN(C(=O)COc2cccnc2)C3)CC1 [Example 18, 3-Hydroxy-3-methyl-1-[4-({2-[(pyridin-3-yloxy)acetyl]-1,2,3,4-tetrahydroisoquinolin-6-yl}methyl)piperazin-1-yl]butan-1-one]
